In US4677100A, “Cephalosporin derivatives” (Banyu Pharmaceutical Co., Ltd., priority 1984, dated 1987):
≈ marks a conversion by molar mass, not a printed value.

Columns and labels:
P. aeruginosa AKR17 = experiment: MIC, agar plate dilution method; assay type: cell-based, Pseudomonas aeruginosa; details: for antibacterial activity relative to the compound of Reference Example: Pseudomonas aeruginosa AKR-17, resistant to all cephalosporins including Ceftazidime; for MIC: Pseudomonas aeruginosa, P. aeruginosa AKR17, 10^6 CFU/ml, Sensitivity Disk Agar, read-out: Minimum Inhibitory Concentration
Method: (§1) The minimum inhibitory concentrations (MIC: μg/ml) of the compounds of the present invention against various microorganisms were measured by an agar plate dilution method (inoculum size: 10^6 CFU/ml) by using Sensitivity Disk Agar (Nissui) in comparison with Cefotaxime and Ceftazidime as comparative compounds.

P. aeruginosa AK109 = experiment: MIC, agar plate dilution method; assay type: cell-based, Pseudomonas aeruginosa; details: for antibacterial activity relative to the compound of Reference Example: Pseudomonas aeruginosa AK109; for MIC: Pseudomonas aeruginosa, P. aeruginosa AK109, 10^6 CFU/ml, Sensitivity Disk Agar, read-out: Minimum Inhibitory Concentration
Method: as §1

[1] = system: Gram-positive bacteria and Gram-negative bacteria; experiment: antibacterial activity, general statement; assay type: cell-based; details: sensitive and resistant bacteria
Method: as §1

E. coli NIHJJC-2 = experiment: MIC, agar plate dilution method; assay type: cell-based; details: Escherichia coli, NIHJJC2; E. coli NIHJJC-2; 10^6 CFU/ml; Sensitivity Disk Agar; read-out: Minimum Inhibitory Concentration
Method: as §1

K. pneumoniae No. 42 = experiment: MIC, agar plate dilution method; assay type: cell-based; details: Klebsiella pneumoniae; K. pneumoniae No. 42; 10^6 CFU/ml; Sensitivity Disk Agar; read-out: Minimum Inhibitory Concentration
Method: as §1

S. aureus JS-1 = experiment: MIC, agar plate dilution method; assay type: cell-based; details: Staphylococcus aureus, JS1; S. aureus JS-1; 10^6 CFU/ml; Sensitivity Disk Agar; read-out: Minimum Inhibitory Concentration
Method: as §1

E. cloaceae Nek 39 = experiment: MIC, agar plate dilution method; assay type: cell-based; details: E. cloaceae Nek 39; 10^6 CFU/ml; Sensitivity Disk Agar; read-out: Minimum Inhibitory Concentration
Method: as §1

E. coli W3630/Rms213 = experiment: MIC, agar plate dilution method; assay type: cell-based; details: Escherichia coli, W3630/RMS213, read-out: Minimum Inhibitory Concentration
Method: as §1

S. aureus NIHJJC-1 = experiment: MIC, agar plate dilution method; assay type: cell-based; details: Staphylococcus aureus, NIHJJC1; S. aureus NIHJJC-1; 10^6 CFU/ml; Sensitivity Disk Agar; read-out: Minimum Inhibitory Concentration
Method: as §1

E. coli CSH = experiment: MIC, agar plate dilution method; assay type: cell-based; details: Escherichia coli, read-out: Minimum Inhibitory Concentration
Method: as §1

P. mirabilis JY10 = experiment: MIC, agar plate dilution method; assay type: cell-based; details: Proteus mirabilis; P. mirabilis JY10; 10^6 CFU/ml; Sensitivity Disk Agar; read-out: Minimum Inhibitory Concentration
Method: as §1

E. coli C/Rms149 = experiment: MIC, agar plate dilution method; assay type: cell-based; details: Escherichia coli, read-out: Minimum Inhibitory Concentration
Method: as §1

A. calcoaceticus No. 14 = experiment: MIC, agar plate dilution method; assay type: cell-based; details: Acinetobacter calcoaceticus; for MIC: A. calcoaceticus No. 14, 10^6 CFU/ml, Sensitivity Disk Agar, read-out: Minimum Inhibitory Concentration
Method: as §1

E. coli CSH2 = experiment: MIC, agar plate dilution method; assay type: cell-based; details: Escherichia coli, 10^6 CFU/ml, Sensitivity Disk Agar, read-out: Minimum Inhibitory Concentration
Method: as §1

E. coli ML1410/Rte16 = experiment: MIC, agar plate dilution method; assay type: cell-based; details: Escherichia coli, ML1410/RTE16, read-out: Minimum Inhibitory Concentration
Method: as §1

P. vulgaris No. 33 = experiment: MIC, agar plate dilution method; assay type: cell-based; details: Proteus vulgaris; P. vulgaris No. 33; 10^6 CFU/ml; Sensitivity Disk Agar; read-out: Minimum Inhibitory Concentration
Method: as §1

C. freundii No. 7 = experiment: MIC, agar plate dilution method; assay type: cell-based; details: Citrobacter freundii; C. freundii No. 7; 10^6 CFU/ml; Sensitivity Disk Agar; read-out: Minimum Inhibitory Concentration
Method: as §1

P. vulgaris OB1043 = experiment: MIC, agar plate dilution method; assay type: cell-based; details: Proteus vulgaris; P. vulgaris OB1043; 10^6 CFU/ml; Sensitivity Disk Agar; read-out: Minimum Inhibitory Concentration
Method: as §1

S. marcescens No. 16-2 = experiment: MIC, agar plate dilution method; assay type: cell-based; details: Serratia marcescens, NO.162; S. marcescens No. 16-2; 10^6 CFU/ml; Sensitivity Disk Agar; read-out: Minimum Inhibitory Concentration
Method: as §1

E. coli W3630/Rms212 = experiment: MIC, agar plate dilution method; assay type: cell-based; details: Escherichia coli, W3630/RMS212, read-out: Minimum Inhibitory Concentration
Method: as §1

P. cepacia 23 = experiment: MIC, agar plate dilution method; assay type: cell-based, Pseudomonas cepacia; details: for MIC: Burkholderia cepacia, P. cepacia 23, 10^6 CFU/ml, Sensitivity Disk Agar, read-out: Minimum Inhibitory Concentration; for antibacterial activity relative to the compound of Reference Example: Pseudomonas cepacia 23
Method: as §1

P. maltophilia IID 1275 = experiment: MIC, agar plate dilution method; assay type: cell-based, Pseudomonas maltophilia; details: for antibacterial activity relative to the compound of Reference Example: Pseudomonas maltophilia resistant to all cephalosporins; for MIC: Stenotrophomonas maltophilia, IID1275, P. maltophilia IID 1275, 10^6 CFU/ml, Sensitivity Disk Agar, read-out: Minimum Inhibitory Concentration
Method: as §1

| Structure (SMILES) | antibacterial activity relative to the compound of Reference Example (P. aeruginosa AKR17) | MIC (P. aeruginosa AKR17) [µg/mL] | antibacterial activity relative to the compound of Reference Example (P. aeruginosa AK109) | MIC (P. aeruginosa AK109) [µg/mL] | antibacterial activity (in words) [1] | MIC (E. coli NIHJJC-2) [µg/mL] | MIC (K. pneumoniae No. 42) [µg/mL] | MIC (S. aureus JS-1) [µg/mL] | MIC (E. cloaceae Nek 39) [µg/mL] | MIC (E. coli W3630/Rms213) [µg/mL] | MIC (S. aureus NIHJJC-1) [µg/mL] | MIC (E. coli CSH) [µg/mL] | MIC (P. mirabilis JY10) [µg/mL] | MIC (E. coli C/Rms149) [µg/mL] | antibacterial activity relative to the compound of Reference Example (A. calcoaceticus No. 14) | MIC (A. calcoaceticus No. 14) [µg/mL] | MIC (E. coli CSH2) [µg/mL] | MIC (E. coli ML1410/Rte16) [µg/mL] | MIC (P. vulgaris No. 33) [µg/mL] | MIC (C. freundii No. 7) [µg/mL] | further results |
| --- | --- | --- | --- | --- | --- | --- | --- | --- | --- | --- | --- | --- | --- | --- | --- | --- | --- | --- | --- | --- | --- |
| C[N+]1(CC2=C(C(=O)[O-])N3C(=O)C(NC(=O)C(=NOC4(C(=O)O)CC4)c4csc(N)n4)C3SC2)Cc2cc(O)c(O)cc2C1 (stereo not drawn) [Ex. 10-E, 7-[(Z)-2-(2-aminothiazol-4-yl)-2-(1-carboxy-1-cyclopropoxyimino)acetamido]-3-(5,6-dihydroxy-2-methyl-2-isoindolinium)methyl-3-cephem-4-carboxylate] | at least 32 times | 0.1 (≈ 0.159 µM) | at least 16 times | ≤ 0.05 | particularly strong antibacterial activities | ≤ 0.05 | 0.1 (≈ 0.159 µM) | > 25 | ≤ 0.05 | ≤ 0.05 | 25 (≈ 39.6 µM) | ≤ 0.05 | ≤ 0.05 | ≤ 0.05 | at least 32 times | 0.2 (≈ 0.317 µM) | ≤ 0.05 | ≤ 0.05 | ≤ 0.05 | 1.56 (≈ 2.47 µM) | MIC (P. vulgaris OB1043): ≤ 0.05 µg/mL; MIC (S. marcescens No. 16-2): 0.39 µg/mL (≈ 0.618 µM); MIC (E. coli W3630/Rms212): ≤ 0.05 µg/mL; MIC (P. cepacia 23): ≤ 0.05 µg/mL; antibacterial activity relative to the compound of Reference Example (P. cepacia 23): at least 32 times; antibacterial activity relative to the compound of Reference Example (P. maltophilia IID 1275): at least twice as strong; MIC (P. maltophilia IID 1275): 3.12 µg/mL (≈ 4.95 µM) |
| C[N+]1(CC2=C(C(=O)[O-])N3C(=O)C(NC(=O)C(=NOC4(C(=O)O)CCCC4)c4csc(N)n4)C3SC2)Cc2cc(O)c(O)cc2C1 (stereo not drawn) [Ex. 12-C, 7-[(Z)-2-(2-aminothiazol-4-yl)-2-(1-carboxy-1-cyclopentyloxyimino)acetamido]-3-(5,6-dihydroxy-2-methyl-2-isoindolinium)methyl-3-cephem-4-carbcxylate] | at least 32 times | 0.1 (≈ 0.152 µM) | at least 16 times | ≤ 0.05 | particularly strong antibacterial activities | ≤ 0.05 | 0.1 (≈ 0.152 µM) | > 25 | 0.1 (≈ 0.152 µM) | ≤ 0.05 | 25 (≈ 38 µM) | 0.1 (≈ 0.152 µM) | ≤ 0.05 | ≤ 0.05 | at least 32 times | 0.2 (≈ 0.304 µM) | 0.1 (≈ 0.152 µM) | ≤ 0.05 | 0.1 (≈ 0.152 µM) | 1.56 (≈ 2.37 µM) | MIC (P. vulgaris OB1043): ≤ 0.05 µg/mL; MIC (S. marcescens No. 16-2): 0.39 µg/mL (≈ 0.592 µM); MIC (E. coli W3630/Rms212): ≤ 0.05 µg/mL; MIC (P. cepacia 23): ≤ 0.05 µg/mL; antibacterial activity relative to the compound of Reference Example (P. cepacia 23): at least 32 times; antibacterial activity relative to the compound of Reference Example (P. maltophilia IID 1275): at least twice as strong; MIC (P. maltophilia IID 1275): 6.25 µg/mL (≈ 9.49 µM) |
| C[N+]1(CC2=C(C(=O)[O-])N3C(=O)C(NC(=O)C(=NOC4CCCC4)c4csc(N)n4)C3SC2)Cc2cc(O)c(O)cc2C1 (stereo not drawn) [Ex. 13-D, 7-[(Z)-2-(2-aminothiazol-4-yl)-2-cyclopentyloxyiminoacetamido]-3-(5,6-dihydroxy-2-methyl-2-isoindolinium)methyl-3-cephem-4-carboxylate] | at least 32 times | 0.39 (≈ 0.634 µM) | at least 16 times | 0.05 (≈ 0.0813 µM) | particularly strong antibacterial activities | 0.05 (≈ 0.0813 µM) | 0.1 (≈ 0.163 µM) | 12.5 (≈ 20.3 µM) | 0.05 (≈ 0.0813 µM) | 0.05 (≈ 0.0813 µM) | 3.12 (≈ 5.08 µM) | 0.1 (≈ 0.163 µM) | 0.05 (≈ 0.0813 µM) | 0.05 (≈ 0.0813 µM) | at least 32 times | 0.78 (≈ 1.27 µM) | 0.1 (≈ 0.163 µM) | 0.05 (≈ 0.0813 µM) | 0.1 (≈ 0.163 µM) | 1.56 (≈ 2.54 µM) | MIC (P. vulgaris OB1043): 0.2 µg/mL (≈ 0.325 µM); MIC (S. marcescens No. 16-2): 0.78 µg/mL (≈ 1.27 µM); MIC (E. coli W3630/Rms212): 0.025 µg/mL (≈ 0.0407 µM); MIC (P. cepacia 23): 0.1 µg/mL (≈ 0.163 µM); antibacterial activity relative to the compound of Reference Example (P. cepacia 23): at least 32 times; antibacterial activity relative to the compound of Reference Example (P. maltophilia IID 1275): at least twice as strong; MIC (P. maltophilia IID 1275): 12.5 µg/mL (≈ 20.3 µM) |
